# Where two headings read alike, the source gives them in different places.
# Assays:
# Caco-2 cells = assay: Annexin V-FITC/PI apoptosis assay by flow cytometry; format: cell-based; parameters: key: % of cells; details: annexin-V FITC/PI staining, 24h
# Description: In order to determine the percentage of viable, apoptotic and necrotic cells after treatment with our compounds, double-staining with fluorescein isothiocyanate (FITC) and PI was performed. Annexin V-FITC Apoptosis Detection Kit (BioVision, CA, USA) was used. Briefly, cultured Caco-2 were treated with the tested compounds or DMSO for 24h. Cells were then collected by centrifugation at 2000 rpm for 5 min, and the pellet was washed with PBS then centrifuged again at 2000 rpm for 5 min then resuspended in 500μL of the kit’s binding buffer before adding the Annexin V-FITC and PI. The cells were then incubated at room temperature in the dark for 5 min. Annexin V-FITC binding was measured using FACS Calibur flow cytometer (BD biosciences, USA) (Ex = 488 nm, Em = 533 nm, FL1 filter for annexin and FL2 filter for PI).
# A549 cells = assay: MTT cell viability assay, A549; format: cell-based, human
# Description: (§1) MCF-7 cells (Human breast adenocarcinoma), HepG2 (human hepatocellular carcinoma), A549 (human lung adenocarcinoma), Caco-2 (colon carcinoma), PANC-1 (human pancreatic cancer), and Vero cells (derived from normal kidney cells) were supplied by (Holding Company for Biological Products and Vaccines VACSERA; Giza, Egypt). The cells were cultured in PRMI 1640 medium (Lonza, Switzerland) supplemented with 10% fetal bovine serum (Gibco), 1% penicillin and 1% streptomycin (Sigma Aldrich, Saint Louis, MO, USA) at 37 °C under an atmosphere of 5% CO2 and 95% air.
# (§2) The effect of parent compounds and their derivatives were assessed by (3-(4,5-dimethylthiazol-2-yl)-2,5diphenyl-tetrazolium bromide) MTT assay. […] After a merged sheet of cells developed, the growth media was decanted from the 96-well microtiter and refilled with different concentrations of compounds (µg/mL), and the plate was incubated at 37 °C for 48 h to minimize exposure to the dissolving agent (Supporting Information).
# (§3) MTT solution (BIO BASIC CANADA INC) was prepared [5 mg/mL in phosphate buffered saline (PBS)], added to each well and incubated for 4 h, then after removing the media, 200 μL of DMSO was added to each well to solubilize the formazan crystals and the optical density of the formazan product was measured at 560 nm using microplate reader (mindray, MR-96A). The results were calculated as the mean of the three independent experiments. […]
# (§4) Determination of sample cytotoxicity on cells (MTT protocol) […]
# (§5) well) and incubated at 37°C for 24 hours to develop a complete monolayer sheet.
# (§6) 2- Growth medium was decanted from 96 well micro titer plates after confluent sheet of cells were formed, cell monolayer was washed twice with wash media.
# (§7) 3- two-fold dilutions of tested sample was made in RPMI medium with 2% serum […]
# (§8) 4- 0.1 ml of each dilution was tested in different wells leaving 3 wells as control, receiving only maintenance medium.
# (§9) 5- Plate was incubated at 37°C and examined. Cells were checked for any physical signs of toxicity, e.g. partial or complete loss of the monolayer, rounding, shrinkage, […]
# (§10) 6- MTT solution was prepared (5mg/ml in PBS) (BIO BASIC CANADA INC).
# (§11) 8- 20ul MTT solution were added to each well. Place on a shaking table, 150rpm for 5 minutes, to thoroughly mix the MTT into the media.
# (§12) 10) Dump off the media. (dry plate on paper towels to remove residue if necessary. […] 9 ش - ايلعلا هبضهلا - مطقملا / ىسيئرلا لمعملا […]
# [1] = MTT cell viability assay on normal Vero cells (selectivity); format: cell-based; details: African green monkey, Vero cells (normal kidney cells)
# Description: (§13) MCF-7 cells (Human breast adenocarcinoma), HepG2 (human hepatocellular carcinoma), A549 (human lung adenocarcinoma), Caco-2 (colon carcinoma), PANC-1 (human pancreatic cancer), and Vero cells (derived from normal kidney cells) were supplied by (Holding Company for Biological Products and Vaccines VACSERA; Giza, Egypt).
# as §2, §3, §4, §5, §6, §7, §8, §9, §10, §11
# (§14) 10) Dump off the media. (dry plate on paper towels to remove residue if necessary. […]
# Vero normal cell line = assay: as above; format: cell-based
# Description: as §13, §2, §3, §4, §5, §6, §7, §8, §9, §10, §11, §14
# PANC-1 cells = assay: MTT cell viability assay, PANC-1; format: cell-based, human
# Description: as §1, §2, §3, §4, §5, §6, §7, §8, §9, §10, §11, §12
# Caco-2 cancer cell line = assay: MTT cell viability assay, Caco-2; format: cell-based
# Description: as §1, §2, §3, §4, §5, §6, §7, §8, §9, §10, §11, §12
# HepG2 cells = assay: MTT cell viability assay, HepG2; format: cell-based, human
# Description: as §1, §2, §3, §4, §5, §6, §7, §8, §9, §10, §11, §12
compound,measurement,setting,value
"O=C(O)/C=C/c1ccc(O)c(O)c1 [Compound 1, Caffeic acid]",Apoptosis Total,Caco-2 cells,11.31
same,Early Apoptosis,Caco-2 cells,3.41
same,Late Apoptosis,Caco-2 cells,5.98
same,Necrosis,Caco-2 cells,1.92
same,Toxicity %,"A549 cells; A549, 15.625 ug/ml",0.7435%
same,Toxicity %,"A549 cells; A549, 31.25 ug/ml",0.1239%
same,Toxicity %,"A549 cells; A549, 62.5 ug/ml",0.9913%
same,Toxicity %,"A549 cells; A549, 125 ug/ml",3.841%
same,Toxicity %,"A549 cells; A549, 250 ug/ml",52.91%
same,Toxicity %,"A549 cells; A549, 500 ug/ml",78.56%
same,IC50,"A549 cells; Homo sapiens, A549, MTT, 48 h, average of triplicates, read-out: IC50 (μM) ± SD A549",1630 µM
same,viability at 15.625 µg/mL,"A549 cells; Homo sapiens, A549, 15.625 ug/ml",99.3%
same,viability at 31.25 µg/mL,"A549 cells; Homo sapiens, A549, 31.25 ug/ml",99.9%
same,viability at 62.5 µg/mL,"A549 cells; Homo sapiens, A549, 62.5 ug/ml",99%
same,viability at 125 µg/mL,"A549 cells; Homo sapiens, A549, 125 ug/ml",96.2%
same,viability at 250 µg/mL,"A549 cells; Homo sapiens, A549, 250 ug/ml",47.1%
same,viability at 500 µg/mL,"A549 cells; Homo sapiens, A549, 500 ug/ml",21.4%
same,IC50,"A549 cells; Homo sapiens, A549, MTT report T-4-019-5, Conc. ug/ml, read-out: IC50",317 µg/mL
same,"viability at 48 h, 15.625 ug/ml",[1]; 15.625 ug/ml,99.1%
same,"viability at 48 h, 31.25 ug/ml",[1]; 31.25 ug/ml,99%
same,"viability at 48 h, 62.5 ug/ml",[1]; 62.5 ug/ml,99.3%
same,"viability at 48 h, 125 ug/ml",[1]; 125 ug/ml,63.6%
same,"viability at 48 h, 250 ug/ml",[1]; 250 ug/ml,22.9%
same,"viability at 48 h, 500 ug/ml",[1]; 500 ug/ml,18.1%
same,Toxicity %,Vero normal cell line; 15.625 ug/ml,0.8516%
same,Toxicity %,Vero normal cell line; 31.25 ug/ml,0.9732%
same,Toxicity %,Vero normal cell line; 62.5 ug/ml,0.7299%
same,Toxicity %,Vero normal cell line; 125 ug/ml,36.37%
same,Toxicity %,Vero normal cell line; 250 ug/ml,77.13%
same,Toxicity %,Vero normal cell line; 500 ug/ml,81.87%
same,IC50,"Vero normal cell line; Chlorocebus sabaeus, MTT report T-4-019-5, Conc. ug/ml",176 µg/mL
same,IC50,"PANC-1 cells; Homo sapiens, PANC-1, MTT, 48 h, average of triplicates, read-out: IC50 (μM) ± SD PANC-1",1290 µM
same,viability at 15.625 µg/mL,"PANC-1 cells; Homo sapiens, PANC-1, Panc1, 15.625 ug/ml",100%
same,viability at 31.25 µg/mL,"PANC-1 cells; Homo sapiens, PANC-1, Panc1, 31.25 ug/ml",101%
same,viability at 62.5 µg/mL,"PANC-1 cells; Homo sapiens, PANC-1, Panc1, 62.5 ug/ml",99.8%
same,viability at 125 µg/mL,"PANC-1 cells; Homo sapiens, PANC-1, Panc1, 125 ug/ml",91.8%
same,viability at 250 µg/mL,"PANC-1 cells; Homo sapiens, PANC-1, Panc1, 250 ug/ml",48.3%
same,viability at 500 µg/mL,"PANC-1 cells; Homo sapiens, PANC-1, Panc1, 500 ug/ml",29.7%
same,IC50,"PANC-1 cells; Homo sapiens, PANC-1, Panc1, MTT report T-4-019-5, Conc. ug/ml, read-out: IC50",251 µg/mL
same,Toxicity %,"PANC-1 cells; Panc1, 15.625 ug/ml",0%
same,Toxicity %,"PANC-1 cells; Panc1, 31.25 ug/ml",0%
same,Toxicity %,"PANC-1 cells; Panc1, 62.5 ug/ml",0.1812%
same,Toxicity %,"PANC-1 cells; Panc1, 125 ug/ml",8.243%
same,Toxicity %,"PANC-1 cells; Panc1, 250 ug/ml",51.72%
same,Toxicity %,"PANC-1 cells; Panc1, 500 ug/ml",70.29%
same,Toxicity %,"Caco-2 cancer cell line; Caco2, 15.625 ug/ml",0.09606%
same,Toxicity %,"Caco-2 cancer cell line; Caco2, 31.25 ug/ml",10.47%
same,Toxicity %,"Caco-2 cancer cell line; Caco2, 62.5 ug/ml",52.83%
same,Toxicity %,"Caco-2 cancer cell line; Caco2, 125 ug/ml",74.26%
same,Toxicity %,"Caco-2 cancer cell line; Caco2, 250 ug/ml",79.92%
same,Toxicity %,"Caco-2 cancer cell line; Caco2, 500 ug/ml",88.09%
same,viability at 15.625 µg/mL,"Caco-2 cancer cell line; Homo sapiens, Caco-2, Caco2, 15.625 ug/ml",99.9%
same,viability at 31.25 µg/mL,"Caco-2 cancer cell line; Homo sapiens, Caco-2, Caco2, 31.25 ug/ml",89.5%
same,viability at 62.5 µg/mL,"Caco-2 cancer cell line; Homo sapiens, Caco-2, Caco2, 62.5 ug/ml",47.2%
same,viability at 125 µg/mL,"Caco-2 cancer cell line; Homo sapiens, Caco-2, Caco2, 125 ug/ml",25.7%
same,viability at 250 µg/mL,"Caco-2 cancer cell line; Homo sapiens, Caco-2, Caco2, 250 ug/ml",20.1%
same,viability at 500 µg/mL,"Caco-2 cancer cell line; Homo sapiens, Caco-2, Caco2, 500 ug/ml",11.9%
same,IC50,"Caco-2 cancer cell line; Homo sapiens, Caco-2, Caco2, MTT report T-4-019-5, Conc. ug/ml, read-out: IC50",81.2 µg/mL
same,IC50,"Caco-2 cancer cell line; Homo sapiens, Caco-2, MTT, 48 h, average of triplicates, parent compounds and doxorubicin (Table 2), read-out: IC50 (μM) ± SD Caco-2",410 µM
same,Toxicity %,"HepG2 cells; HepG2, 15.625 ug/ml",0.202%
same,Toxicity %,"HepG2 cells; HepG2, 31.25 ug/ml",0.101%
same,Toxicity %,"HepG2 cells; HepG2, 62.5 ug/ml",0.5051%
same,Toxicity %,"HepG2 cells; HepG2, 125 ug/ml",13.64%
same,Toxicity %,"HepG2 cells; HepG2, 250 ug/ml",72.12%
same,Toxicity %,"HepG2 cells; HepG2, 500 ug/ml",83.94%
same,IC50,"HepG2 cells; Homo sapiens, HepG2, MTT, 48 h, average of triplicates, read-out: IC50 (μM) ± SD HepG2",1030 µM
same,viability at 15.625 µg/mL,"HepG2 cells; Homo sapiens, HepG2, 15.625 ug/ml",99.8%
same,viability at 31.25 µg/mL,"HepG2 cells; Homo sapiens, HepG2, 31.25 ug/ml",99.9%
same,viability at 62.5 µg/mL,"HepG2 cells; Homo sapiens, HepG2, 62.5 ug/ml",99.5%
same,viability at 125 µg/mL,"HepG2 cells; Homo sapiens, HepG2, 125 ug/ml",86.4%
same,viability at 250 µg/mL,"HepG2 cells; Homo sapiens, HepG2, 250 ug/ml",27.9%
same,viability at 500 µg/mL,"HepG2 cells; Homo sapiens, HepG2, 500 ug/ml",16.1%
same,IC50,"HepG2 cells; Homo sapiens, HepG2, MTT report T-4-019-5, Conc. ug/ml, read-out: IC50",201 µg/mL
